Measurements from US5457182A (Merck & Co., Inc., priority 1994, dated 1995).
“Also recorded” adds a separate entry of the source.

How the values were obtained:
FKBP12.6 [1] = target: T1, FKBP12.6 (Bos taurus, UniProt P68107); assay: Inhibition of PPIase activity of FKBP12.6; assay type: biochemical, bovine (calf brain)
T1 construct: The FKBP12.6 protein has been isolated and purified from calf brain; from tissue; host or cells: calf brain cytosol
Procedure: (§1) PPIase assays were performed as described (Fischer, G., et al., Nature, 337,476-478 (1989)) with the following changes: the peptide substrate used was N-succinyl-Ala-Leu-Pro-Phe-p-nitroanilide (BACHEM, California) at a final concentration of 72 μM and chymotrypsin (Sigma) was present in the assay at a concentration of 6 μM. The total reaction volume was 1.5 ml. The release of p-nitroanilide by chymotrypsin was measured by following the increase in absorbance at 405 nm on a Beckman DU68 spectrophotometer. After an initial rapid rise in absorbance due to hydrolysis of the trans peptide, the slow secondary increase in absorbance which reflects the cis-to-trans conversion of the peptide by the PPIase was measured at 3 sec intervals out to 1.5 min. The data were fitted to a simple first-order rate equation and the first-order rate constant, k (s^-1), calculated.

[2] = literature; cited from earlier work
FKBP12.6 [3] = target: T1, FKBP12.6; assay: [3H]dihydroFK-506 direct binding (LH-20 assay), Scatchard, FKBP12.6; design: species or system bovine (calf brain); conditions: direct binding data, Scatchard format
Procedure: (§2) The basic LH-20 binding assay was performed as described by Handschumacher,R., et al., Science, 226, 544-547 (1984) with the modifications noted in Siekierka, J., et al., Nature, 341, 755-757 (1989).

FKBP12 = FKBP12 (Homo sapiens, UniProt P62942); assay: [3H]dihydroFK-506 direct binding, FKBP12; conditions: unit inferred
Procedure: as §2

JURKAT cells = assay: IL-2 secretion in JURKAT cells stimulated with PMA and ionomycin; assay type: cell-based, human
[4] = FK-506 specific binding activity of FKBP12.6 preparations (LH-20 assay)
Procedure: However, FKBP12.6 is separated completely from authentic FKBP12 in Step II by chromatography on the CM-450M column. FKBP12.6 remains bound to the CM column while FKBP12 flows through during loading and washing. FKBP12.6 elutes from the column between 100 and 200 mM NaCl and Westerns of the gradient fractions using the anti-C-terminal peptide antibody confirm that there is no trace of FKBP12 present in the FKBP12.6 fractions. Because of the presence of FKBP12 in the S200, the recovery of FKBP12.6 may only be calculated from the CM-450M step forward using the standard LH-20 binding assay (Handschumacher, R., et al., Science. 226, 544-547 (1984)).
Starting with approximately 60 grams of protein in the crude cytosolic brain extract, a typical yield after purification is about 50 μg of homogeneous FKBP12.6 (see Table I). […] FKBP12.6 was eluted from the resin with 4M guanidine-HCl and renatured by dialysis. […] This calculates to a 3,271-fold purification from the CM-450M step. Because the CM-450M step removes 94% of the protein from the crude extract, the overall s purification from the S200 is actually much greater. In calf brain cytosol then, FKBP12.6 is clearly much less abundant than FKBP12 is in calf thymus which was purified from that tissue 337-fold to homogeneity with almost the identical recovery (Siekierka, J., et al., Nature, 341, 755-757 (1989)). […] A second explanation for the lower than expected binding is that the LH-20 assay used to estimate binding is not an equilibrium binding assay and ligand off-rates will result in lower calculated specific binding activities. A third explanation is that all of the FKBP12.6 may not be […] properly and the […] protein may not bind effectively.
as §2

[5] = Peptidyl-prolyl cis-trans isomerase (PPIase) activity; assay type: biochemical
Procedure: as §1

calcineurin [6] = assay: Calcineurin phosphatase assay; assay type: biochemical, bovine
Procedure: For a side-by-side comparison, FKBP12 was also tested for its ability to inhibit calcineurin in the presence of drug.
The calcineurin phosphatase assay is a modified version of previous assays (Liu, J., et al., Cell, 66, 807-815 (1991); Manalan, A., et al., Proc. Natl. Acad. Sci. U.S.A., 80, 4291-4295 (1983)). Reaction mixtures ([…] contained: 40 mM Tris (pH 8), 100 mM NaCl, 6 mM Mg(OAc)2, 0.1 mM CaCl2, 0.1 mg/ml BSA, 0.5 mM dithiothreitol, 190 nM bovine brain calmodulin (Sigma), 3 nM bovine brain calcineurin (Sigma), and 40 μM [^33 P]RII peptide (Peptides International) (600 cpm/pmole). Reaction mixtures were pre-incubated for 30 min at 30° C. prior to addition of the labeled peptide. The reaction was initiated by addition of the peptide and the dephosphorylation reaction was allowed to proceed for 10 min at 30° C. The reaction was terminated by the addition of 0.5 ml of 5% trichloroacetic acid containing 100 mM sodium phosphate (stop buffer) and applied to a 0.5 ml Dowex 50W-X8, H^+ column. Free [^33 P]phosphate was eluted from the column with 0.5 ml of stop buffer followed by 0.5 ml of water.

calcineurin [7] = assay: FKBP.FK-506.CaN complex-formation assay (size-exclusion column, Western analysis); assay type: binding, bovine; conditions: Ca^2+
Procedure: In the modified assay, samples were assayed by Western analysis using the anti-C-terminal peptide antibody in order to identify FKBP12 and FKBP12.6 in various chromatographic fractions.
In the first experiment, FKBP12 and FKBP12.6 were partially purified by preparative HPLC gel filtration chromatography on a Bio-Sil TSK-125 column. These partially purified FKBPs (containing both FKBP12 and FKBP12.6) are devoid of CaN which separates completely from them on this column. FKBP12 and FKBP12.6 co-elute at fractions 26 and 27 on the analytical sizing column (G2000SW) used in this experiment. […] Because this crude FKBP material also contains FKBP12.6, it can also be observed migrating slightly above FKBP12 in FIG. 4A.
To more carefully examine the requirements for FKBP12.6 complex formation with CaN, experiments were conducted using purified FKBP12.6.
The incubation buffer contained 20 mM Tris (pH 7.5), 100 mM NaCl, 6 mM MgCl2, 0.1 mM CaCl2, 0.1 mg/ml BSA, and 0.5 mM dithiothreitol. The incubation reaction was chromatographed on a Bio-Sil SEC400 HPLC column (Bio-Rad) at a flow rate of 1 ml/min and 1 min fractions were collected. The chromatography buffer was the same as the incubation buffer except that BSA was omitted. 30 μl of fractions 19-29 were subjected to electrophoresis on a 16% Novex Tris-Glycine gel and Western analysis was performed as described above.

Heat stability = assay type: physicochemical
[8] = FK-506 specific binding activity of FKBP12.6 preparations (LH-20 assay); conditions: Step II. CM-650M
[9] = partially purified FKBP12.6 (Step VI)

T1 sequence (P68107 whole entry): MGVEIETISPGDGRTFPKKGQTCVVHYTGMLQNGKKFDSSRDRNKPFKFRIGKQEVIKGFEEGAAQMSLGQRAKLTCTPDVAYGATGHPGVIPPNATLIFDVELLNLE
Sequence of FKBP12 (P62942 whole entry, species assumed): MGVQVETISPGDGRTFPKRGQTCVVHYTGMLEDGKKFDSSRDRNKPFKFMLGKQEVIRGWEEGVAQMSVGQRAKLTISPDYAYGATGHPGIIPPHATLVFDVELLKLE

C=CCC1C=C(C)CC(C)CC(OC)C2OC(O)(C(=O)C(=O)N3CCCCC3C(=O)OC(C(C)=CC3CCC(O)C(OC)C3)C(C)C(O)CC1=O)C(C)CC2OC (stereo not drawn) [FK-506, 17-allyl-1,14-dihydroxy-12-[2'-(4"-hydroxy-3"-methoxycyclohexyl)-1'-methylvinyl]-23,25-dimethoxy-13,19,21,27-tetramethyl-11,28-dioxa-4-azatricyclo-[22.3.1.0^4,9]octacos-18-ene-2,3,10,16-tetraone]
specific inhibition of FKBP12.6 PPIase activity (FKBP12.6 [1]; Example 4): specifically inhibited by FK-506 | inhibition of PPIase activity of FKBP12.6 (FKBP12.6 [1]; [9]): potent inhibitors | neurological toxicities [2]: neurological toxicities, which include drowsiness, lethargy, tremors, and aggressiveness

[3H]CC([3H])C[C@@H]1/C=C(\C)C[C@H](C)C[C@H](OC)[C@H]2O[C@@](O)(C(=O)C(=O)N3CCCC[C@H]3C(=O)O[C@H](/C(C)=C/[C@@H]3CC[C@@H](O)[C@H](OC)C3)[C@H](C)[C@@H](O)CC1=O)[C@H](C)C[C@@H]2OC (stereo partly drawn) [[^3 H]dihydroFK-506]
Kd (FKBP12.6 [3]): 0.55 nM | Kd (FKBP12): 0.4 nM | inhibition of IL-2 secretion (JURKAT cells; JURKAT cells, PMA and ionomycin): potent inhibitor | potency relative to parent compound (times less potent) (JURKAT cells; inhibition of IL-2 secretion, parent FK-506): 5 times

CO[C@H]1C[C@@H]2CC[C@@H](C)[C@@](O)(O2)C(=O)C(=O)N2CCCC[C@H]2C(=O)O[C@H]([C@H](C)C[C@@H]2CC[C@@H](O)[C@H](OC)C2)CC(=O)[C@H](C)/C=C(\C)[C@@H](O)[C@@H](OC)C(=O)[C@H](C)C[C@H](C)/C=C/C=C/C=C/1C [rapamycin]
inhibition of PPIase activity of FKBP12.6 (FKBP12.6 [1]; [9]): potent inhibitors | inhibition of PPIase activity relative to FK-506 (FKBP12.6 [1]; [9]): somewhat better inhibitor than FK-506

FKBP12.6: homogeneous cytosolic binding protein for FK-506, 10-12 kilodaltons, from calf brain; partial sequence SEQ ID NO: 1
specific binding activity ([4]; FKBP12.6 characteristic, summary): about 4.8 micrograms FK-506 per mg FKBP12.6 protein | FK-506 Binding (ng FK-506 bound/mg protein) ([4]; Step III. TSK-125 HPLC): 4.23 ng FK-506 bound/mg protein | FK-506 Binding (ng FK-506 bound/mg protein) ([4]; Step IV. CM-3SW HPLC): 13.3 ng FK-506 bound/mg protein | FK-506 Binding (ng FK-506 bound/mg protein) ([4]; Step V. Phenyl-5PW HPLC): 52.85 ng FK-506 bound/mg protein | FK-506 Binding (ng FK-506 bound/mg protein) ([4]; Step VI. G2000SW HPLC, about 25% pure): 1278.3 ng FK-506 bound/mg protein | FK-506 Binding (ng FK-506 bound/mg protein) ([4]; Step VII. FK-506 Affinity): 4874.0 ng FK-506 bound/mg protein | theoretical specific binding activity ([4]; assuming mass of 12.6 kDa and 1 mole FK-506 per mole protein): 64 mg of [^3 H]dihydroFK-506 per | specific binding activity ([4]; purified FKBP12.6): 4.8 μg of [^3 H]dihydroFK-506 per mg of protein | retention of binding to FK-506 ([4]; renatured material): retains binding to FK-506 | PPIase activity compared with FKBP12 ([5]; 25% purity of FKBP12.6 factored in): virtually equivalent to that of FKBP12 | PPIase activity ([5]; Example 4): low, but significant PPIase activity | PPIase activity ([5]; material from step VI): did have PPIase activity | PPIase activity ([5]; renatured material (Step VII)): did not have PPIase activity | IC50 (calcineurin [6]; in presence of FK-506, CaN, CaM, Ca^2+, Mg^2+, read-out: IC50 for inhibition of CaN): 16 nM | ability to block CaN phosphatase activity relative to FKBP12 (calcineurin [6]; in presence of FK-506, FIG. 5): almost equipotent to FKBP12 | complex formation with CaN (calcineurin [7]; partially purified FKBPs, CaM, Mg^2+ and FK-506): Most of the FKBP12.6 is shifted to a high molecular weight complex | complex formation with CaN (calcineurin [7]; purified FKBP12.6, CaM, Mg^2+ and FK-506): all of the immunoreactive FKBP12.6 is shifted to fractions (20-22) | complex formation with CaN (calcineurin [7]; purified FKBP12.6, CaM, Mg^2+, without FK-506): continues to elute at fractions 26 and 27 | stability to heating (Heat stability; 56° C. for 30 minutes): not stable upon heating; also recorded: unstable to heating | effect of heat-treatment step (Heat stability; cytosolic extract from calf brain): complete loss of FKBP12.6 | FK-506 Binding (ng FK-506 bound/mg protein) [8]: 1.49 ng FK-506 bound/mg protein
